Test results from the supplement of paper PMC10307832.

Key:
Experiment in all cases: relative viability (nuclei count vs DMSO), 5 days (fraction); higher = more cells survive
LCLC-97TM1 = tested on: LCLC-97TM1
Method in brief: (§1)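 One day after seeding in 1536-well plates, lung cancer cell lines were dosed by pin tool. Dosing was either single-drug or a fixed anchor-drug dose plus five library-drug doses (not always all listed) in √10 steps. After 5 days, nuclei were stained in one fix-and-stain step and counted on 4× images, and relative viability is the nuclei count of treated wells over that of vehicle wells, given as the median of duplicate plates.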

BEN = tested on: BEN
Method in brief: as §1

NCI-H2085 = tested on: NCI-H2085
Method in brief: as §1

SW 1573 = tested on: SW 1573
Method in brief: as §1

HOP-62 = tested on: HOP-62
Method in brief: as §1

EPLC-272H = tested on: EPLC-272H
Method in brief: as §1

PC-3 [JPC-3] = tested on: PC-3 [JPC-3]
Method in brief: as §1

LOU-NH91 = tested on: LOU-NH91
Method in brief: as §1

EKVX = tested on: EKVX
Method in brief: as §1

NCI-H1975 = tested on: NCI-H1975
Method in brief: as §1

NCI-H2087 = tested on: NCI-H2087
Method in brief: as §1

HCC-827 = tested on: HCC-827
Method in brief: as §1

HCC-44 = tested on: HCC-44
Method in brief: as §1

NCI-H1666 = tested on: NCI-H1666
Method in brief: as §1

NCI-H647 = tested on: NCI-H647
Method in brief: as §1

201T = tested on: 201T
Method in brief: as §1

NCI-H1437 = tested on: NCI-H1437
Method in brief: as §1

H3255 = tested on: H3255
Method in brief: as §1

COR-L 105 = tested on: COR-L 105
Method in brief: as §1

NCI-H2126 = tested on: NCI-H2126
Method in brief: as §1

LU99A = tested on: LU99A
Method in brief: as §1

Compound `COc1cc(N2CCC(C(N)=O)CC2)ccc1Nc1nc(N)c(Cl)c(Nc2ccccc2S(=O)(=O)C(C)C)n1` [HG-5-88-01] + CC(C)C[C@H](NC(=O)[C@H](Cc1ccccc1)NC(=O)c1cnccn1)B(O)O [Bortezomib] (partner 0.002 µM) has a relative viability (LCLC-97TM1; first compound 0.04 µM) of 1.05, a relative viability (LCLC-97TM1; first compound 0.1265 µM) of 0.313 and a relative viability (LCLC-97TM1; first compound 0.4 µM) of 0.308. It also gave a relative viability (LCLC-97TM1; first compound 1.265 µM) of 0.546, a relative viability (LCLC-97TM1; first compound 4 µM) of 0.213 and a relative viability (BEN; first compound 0.04 µM) of 0.652. The relative viability (BEN; first compound 0.1265 µM) was 0.752, the relative viability (BEN; first compound 0.4 µM) was 0.714 and the relative viability (BEN; first compound 1.265 µM) was 0.841. For the same compound, the relative viability (BEN; first compound 4 µM) was 0.791, the relative viability (NCI-H2085; first compound 0.04 µM) was 0.986 and the relative viability (NCI-H2085; first compound 0.1265 µM) was 1.13. The relative viability (NCI-H2085; first compound 0.4 µM) was 0.922, the relative viability (NCI-H2085; first compound 1.265 µM) was 1.01 and the relative viability (NCI-H2085; first compound 4 µM) was 0.917. The relative viability (SW 1573; first compound 0.04 µM) was 1.34, the relative viability (SW 1573; first compound 0.1265 µM) was 1.08 and the relative viability (SW 1573; first compound 0.4 µM) was 0.997. For the same compound, the relative viability (SW 1573; first compound 1.265 µM) was 0.978, the relative viability (SW 1573; first compound 4 µM) was 0.821 and the relative viability (HOP-62; first compound 0.04 µM) was 0.684. It also gave a relative viability (HOP-62; first compound 0.1265 µM) of 0.732, a relative viability (HOP-62; first compound 0.4 µM) of 0.77 and a relative viability (HOP-62; first compound 1.265 µM) of 0.76. It also gave a relative viability (HOP-62; first compound 4 µM) of 0.732, a relative viability (EPLC-272H; first compound 0.04 µM) of 0.854 and a relative viability (EPLC-272H; first compound 0.1265 µM) of 0.941. For the same compound, the relative viability (EPLC-272H; first compound 0.4 µM) was 1, the relative viability (EPLC-272H; first compound 1.265 µM) was 0.851 and the relative viability (EPLC-272H; first compound 4 µM) was 0.385. The relative viability (PC-3 [JPC-3]; first compound 0.04 µM) was 0.982, the relative viability (PC-3 [JPC-3]; first compound 0.1265 µM) was 0.928 and the relative viability (PC-3 [JPC-3]; first compound 0.4 µM) was 0.819. For the same compound, the relative viability (PC-3 [JPC-3]; first compound 1.265 µM) was 0.849, the relative viability (PC-3 [JPC-3]; first compound 4 µM) was 0.533 and the relative viability (LOU-NH91; first compound 0.04 µM) was 0.54. The relative viability (LOU-NH91; first compound 0.1265 µM) was 0.53, the relative viability (LOU-NH91; first compound 0.4 µM) was 0.472 and the relative viability (LOU-NH91; first compound 1.265 µM) was 0.48. It also gave a relative viability (LOU-NH91; first compound 4 µM) of 0.48, a relative viability (EKVX; first compound 0.04 µM) of 1.09 and a relative viability (EKVX; first compound 0.1265 µM) of 1.02. For the same compound, the relative viability (EKVX; first compound 0.4 µM) was 1.02, the relative viability (EKVX; first compound 4 µM) was 0.854 and the relative viability (NCI-H1975; first compound 0.04 µM) was 0.349. The relative viability (NCI-H1975; first compound 0.1265 µM) was 0.452, the relative viability (NCI-H1975; first compound 0.4 µM) was 0.381 and the relative viability (NCI-H1975; first compound 1.265 µM) was 0.344. It also gave a relative viability (NCI-H1975; first compound 4 µM) of 0.23, a relative viability (NCI-H2087; first compound 0.04 µM) of 0.818 and a relative viability (NCI-H2087; first compound 0.1265 µM) of 0.692. It also gave a relative viability (NCI-H2087; first compound 0.4 µM) of 0.713, a relative viability (NCI-H2087; first compound 1.265 µM) of 1.01 and a relative viability (NCI-H2087; first compound 4 µM) of 0.934. It also gave a relative viability (HCC-827; first compound 0.04 µM) of 1.07, a relative viability (HCC-827; first compound 0.1265 µM) of 1.05 and a relative viability (HCC-827; first compound 0.4 µM) of 1.06. For the same compound, the relative viability (HCC-827; first compound 1.265 µM) was 1.14, the relative viability (HCC-827; first compound 4 µM) was 0.472 and the relative viability (HCC-44; first compound 0.04 µM) was 0.901. The relative viability (HCC-44; first compound 0.1265 µM) was 0.868, the relative viability (HCC-44; first compound 0.4 µM) was 0.679 and the relative viability (HCC-44; first compound 1.265 µM) was 0.832. The relative viability (HCC-44; first compound 4 µM) was 0.754, the relative viability (NCI-H1666; first compound 0.04 µM) was 0.944 and the relative viability (NCI-H1666; first compound 0.1265 µM) was 0.897. For the same compound, the relative viability (NCI-H1666; first compound 0.4 µM) was 0.597, the relative viability (NCI-H1666; first compound 1.265 µM) was 0.58 and the relative viability (NCI-H1666; first compound 4 µM) was 0.452. For the same compound, the relative viability (NCI-H647; first compound 0.04 µM) was 1.02, the relative viability (NCI-H647; first compound 0.1265 µM) was 0.826 and the relative viability (NCI-H647; first compound 1.265 µM) was 1.07. It also gave a relative viability (NCI-H647; first compound 4 µM) of 0.967, a relative viability (201T; first compound 0.04 µM) of 1.12 and a relative viability (201T; first compound 0.1265 µM) of 1.03. The relative viability (201T; first compound 0.4 µM) was 1.1, the relative viability (201T; first compound 1.265 µM) was 1.06 and the relative viability (201T; first compound 4 µM) was 1.2. The relative viability (NCI-H1437; first compound 0.04 µM) was 0.491, the relative viability (NCI-H1437; first compound 0.1265 µM) was 0.477 and the relative viability (NCI-H1437; first compound 0.4 µM) was 0.539. The relative viability (NCI-H1437; first compound 1.265 µM) was 0.401, the relative viability (NCI-H1437; first compound 4 µM) was 0.263 and the relative viability (H3255; first compound 0.04 µM) was 0.748. For the same compound, the relative viability (H3255; first compound 0.1265 µM) was 0.745, the relative viability (H3255; first compound 0.4 µM) was 0.75 and the relative viability (H3255; first compound 4 µM) was 0.388. It also gave a relative viability (COR-L 105; first compound 0.04 µM) of 0.875, a relative viability (COR-L 105; first compound 0.1265 µM) of 0.77 and a relative viability (COR-L 105; first compound 0.4 µM) of 0.619. It also gave a relative viability (COR-L 105; first compound 1.265 µM) of 0.375, a relative viability (COR-L 105; first compound 4 µM) of 0.531 and a relative viability (NCI-H2126; first compound 0.04 µM) of 1.16. It also gave a relative viability (NCI-H2126; first compound 0.1265 µM) of 1.12, a relative viability (NCI-H2126; first compound 0.4 µM) of 1.13 and a relative viability (NCI-H2126; first compound 1.265 µM) of 1.15. It also gave a relative viability (NCI-H2126; first compound 4 µM) of 1.12, a relative viability (LU99A; first compound 0.04 µM) of 1.09 and a relative viability (LU99A; first compound 0.1265 µM) of 1.15. It also gave a relative viability (LU99A; first compound 0.4 µM) of 1.03, a relative viability (LU99A; first compound 1.265 µM) of 1.21 and a relative viability (LU99A; first compound 4 µM) of 1.07.
